Experimental data reported in US20260274843A1, “SALT AND SOLID FORMS OF A CDK INHIBITOR” (GENENTECH, INC., priority 2023, published 2026).
In brackets after ≈: the same amount, converted by molar mass.

How the values were obtained:
Assay type in all cases: physicochemical
[1] = Inter-conversion study by competitive slurry of mixed forms (XRPD); conditions: for resulting form after competitive slurry: RT and 50° C. or 60° C.
Experimental: Inter-conversion study was performed by competitive slurry of mixed different forms in solvents. The concentration of all slurry suspensions was 20 mg/mL.
Equal amount of Form I, II, III and IV were added into MeOH, IPA, EA, ACN and water to make suspensions, respectively. All suspensions were stirred at RT and 50° C. The filter cakes were checked by XRPD.
Equal amount of Form I and II were added into the saturated solution of Compound (I). The suspensions were stirred in MeOH, IPA and EA at 60° C. overnight. The filter cakes were checked by XRPD.
Equal amount of Form II and VII were added into the saturated solution of Compound (I). The suspensions were stirred in IPA and EA at RT and 50° C. The filter cakes were checked by XRPD.
Equal amount of Form II and VI were slurred in different water activity system (1 mL of EtOH/water) at RT for 3 days. Solid samples were collected by filtration and analyzed by XRPD.
Equal amount of Form III and VI were slurred in water at RT and 50° C. Solid samples were collected by filtration and analyzed by XRPD.

[2] = Dynamic vapor sorption (DVS) moisture sorption/desorption; conditions: for hygroscopicity: in words
Experimental: Moisture sorption/desorption data was collected on a DVS Intrinsic PLUS (SMS, UK). The sample was placed into a tared sample chamber and automatically weighed. The sample was dried at 40° C./0% RH until the dm/dt was less than 0.002% and cooled to 25° C. The instrument parameters were set as below. • Sample temperature: 25° C. • Min time per step: 30 min • Max time per step: 120 min • Cycle: Full cycle • Adsorption: 0, 10, 20, 30, 40, 50, 60, 70, 80, 90 • Desorption: 80, 70, 60, 50, 40, 30, 20, 10, 0 • Save data rate: 5 s • Total flow rate: 200 sccm • Post experimental total flow: 200 sscm

[3] = Solid stability at 40° C./75% RH and 60° C. (HPLC purity, XRPD); conditions: open; for Purity (Area %): HPLC
Experimental: (§1) Form II was prepared, characterized, and used for stability study. Solid stability of Form II was evaluated at RT/92.5% RH, 60° C. and 40° C./75% RH conditions for 10 days, respectively.
An amount of Form II was open placed at 60° C. and 40° C./75% RH up to 10 days. At 0, 3 and 10 day, the sample was dissolved in diluent to prepare solution for purity analysis by HPLC. Solid samples were analyzed by XRPD to check the crystal form. […] Form II was physically and chemically stable at 40° C./75% RH and 60° C. for 10 days.
Appropriate amounts of maleate Form I and tosylate Form I were placed at 60° C. and 40° C./75% RH for up to 24 days. At 0 and 24 day, the sample was dissolved in diluent to prepare solution for purity analysis by HPLC. Solid samples were analyzed by XRPD to check the crystal form.

[4] = Physical stability at RT/92.5% RH (XRPD); conditions: open, 10 days
Experimental: as §1
Appropriate amount of Form II was open put at RT/92.5% RH condition for 10 days. Then, the sample was checked by XRPD.

[5] = Mechanical treatment (grinding), XRPD check; conditions: ground in mortar, checked at 2 min and 5 min
Experimental: Form II (~15 mg) was ground into a mortar for about 5 minutes, and then checked by XRPD at 2 min and 5 min, respectively.

[6] = Estimated solubility measurement in selected solvents at room temperature; conditions: thermodynamic from solid
Experimental: Preliminary solubility of Compound (I) was estimated in 13 selected solvents at room temperature. About 2 mg of Compound (I) was weighed into sample vials and different solvents were added with vortex, 20-200 μL per time, until the drug solution was clear by observation. The volume of solvent was up to 1000 V. Then, the estimated solubility (mg/mL) was calculated.

[7] = Solubility testing in bio-relevant media (SGF, FaSSIF, FeSSIF) and water at 37° C.; conditions: after 0.5 hours
Experimental: The solubility of maleate Form I, and tosylate Form I were tested in bio-relevant media (SGF, FaSSIF, and FeSSIF) and water at 37° C. up to 24 hours. About 15 mg of the sample was weighed into sample vials and then 3 mL of media was added to make a suspension. All suspensions were shaken at 37° C. with a rate of 200 rpm. At 0.5, 2 and 24 hours, each suspension was filtered and the filtrate was analyzed by HPLC to test the solubility. pH of the filtrate was measured, and the filter cake was analyzed by XRPD.

[8] = 40° C./75% RH and 60° C., up to 10 days

CC(C)c1cnn2ccc(-c3ccnc(Nc4ccc(N5CC[C@H](N(C)C)CC5=O)cn4)n3)cc12 [Form III, (S)-4-(dimethylamino)-1-(6-((4-(3-isopropylpyrazolo[1,5-a]pyridin-5-yl)pyrimidin-2-yl)amino)pyridin-3-yl)piperidin-2-one]
resulting form after competitive slurry ([1]; non-aqueous solvent): transformed to Form II
resulting form after slurry in water ([1]; 50° C.): to Form VI

CC(C)c1cnn2ccc(-c3ccnc(Nc4ccc(N5CC[C@H](N(C)C)CC5=O)cn4)n3)cc12 [Form IV, (S)-4-(dimethylamino)-1-(6-((4-(3-isopropylpyrazolo[1,5-a]pyridin-5-yl)pyrimidin-2-yl)amino)pyridin-3-yl)piperidin-2-one]
resulting form after competitive slurry ([1]; non-aqueous solvent): transformed to Form II

CC(C)c1cnn2ccc(-c3ccnc(Nc4ccc(N5CC[C@H](N(C)C)CC5=O)cn4)n3)cc12 [Form II, (S)-4-(dimethylamino)-1-(6-((4-(3-isopropylpyrazolo[1,5-a]pyridin-5-yl)pyrimidin-2-yl)amino)pyridin-3-yl)piperidin-2-one]
reversibility of DVS adsorption/desorption plot [2]: nearly reversible
water absorbed (DVS) ([2]; 0-90% RH, 25° C.): ~ 0.5%
crystal form after DVS testing ([2]; XRPD after DVS): remained unchanged
hygroscopicity [2]: slightly hygroscopic
crystal form change (XRPD) [3, 8]: no form changed
degradation (purity by HPLC) [3, 8]: No obvious degradation
Purity (Area %) ([3]; 40° C./75% RH, 0 d (initial)): 99.17 Area %
Purity (Area %) ([3]; 40° C./75% RH, 3 d): 99.15 Area %
Purity (Area %) ([3]; 40° C./75% RH, 10 d): 99.13 Area %
Purity (Area %) ([3]; 60° C., 0 d (initial)): 99.17 Area %
Purity (Area %) ([3]; 60° C., 3 d): 99.15 Area %
Purity (Area %) ([3]; 60° C., 10 d): 99.09 Area %
crystal form change (XRPD) [4]: No form change
crystal form after grinding [5]: remained unchanged
resulting form in competitive slurry with Form VI ([1]; EtOH/50% water, RT): transformed to the mixture of Form II and III
physical stability in competitive slurry with Form VI ([1]; EtOH/water with less than 5% of water, RT): physically stable
relative stability among anhydrous forms ([1]; temperature below 60° C., non-aqueous solvent): most stable anhydrous form
resulting form after slurry in water ([1]; 50° C.): mixture of Form II and III
resulting form after slurry in water ([1]; RT): transform to Form III

CC(C)c1cnn2ccc(-c3ccnc(Nc4ccc(N5CC[C@H](N(C)C)CC5=O)cn4)n3)cc12 [Form VI, (S)-4-(dimethylamino)-1-(6-((4-(3-isopropylpyrazolo[1,5-a]pyridin-5-yl)pyrimidin-2-yl)amino)pyridin-3-yl)piperidin-2-one]
resulting form after slurry in water ([1]; RT): transformed to Form III

CC(C)c1cnn2ccc(-c3ccnc(Nc4ccc(N5CC[C@H](N(C)C)CC5=O)cn4)n3)cc12 [Compound (I), (S)-4-(dimethylamino)-1-(6-((4-(3-isopropylpyrazolo[1,5-a]pyridin-5-yl)pyrimidin-2-yl)amino)pyridin-3-yl)piperidin-2-one]
solubility ([6]; organic solvent or mixture, DCM): > 120 mg/mL
solubility ([6]; organic solvent or mixture, MeOH, MEK, EtOH and ACN): 1 to 7 mg/mL (≈ 2.13 to 14.9 mM)
solubility ([6]; organic solvent or mixture, THF): ~20 mg/mL (≈ 42.5 mM)
solubility ([6]; other selected solvents): < 1 mg/mL

CC(C)c1cnn2ccc(-c3ccnc(Nc4ccc(N5CC[C@H](N(C)C)CC5=O)cn4)n3)cc12 [Form I, (S)-4-(dimethylamino)-1-(6-((4-(3-isopropylpyrazolo[1,5-a]pyridin-5-yl)pyrimidin-2-yl)amino)pyridin-3-yl)piperidin-2-one]
hygroscopicity [2]: non-hygroscopicity
crystal form in water during solubility test [7]: converted to a metastable hydrate
resulting form after competitive slurry ([1]; non-aqueous solvent): transformed to Form II
